# Square brackets hold non-standard residues; d marks the D form. Ends that are not written are not given here. Nle = CCCC[C@H](N)C(=O)O
# B1: aaLPNlePLDQTaa (SEQ ID NO:5) (peptide)
# peptide: [dA][dA]LP[Nle]PLDQT[dA][dA]-NH2
# modifications: N-terminus assumed
# SMILES: CCCC[C@H](NC(=O)[C@@H]1CCCN1C(=O)[C@H](CC(C)C)NC(=O)[C@@H](C)NC(=O)[C@@H](C)N)C(=O)N1CCC[C@H]1C(=O)N[C@@H](CC(C)C)C(=O)N[C@@H](CC(=O)O)C(=O)N[C@@H](CCC(N)=O)C(=O)N[C@H](C(=O)N[C@H](C)C(=O)N[C@H](C)C(N)=O)[C@@H](C)O
# How the values were obtained:
# [1] = molecular target: T1, ENaC (Homo sapiens, UniProt P37088+P51168+P51170); conditions: previously demonstrated (Hobbs et al., 2013); cited from earlier work
# T1 construct: Peptides were added mucosally to HBECs at 30 μM and ASL height measured 3 h later by XZ-confocal microscopy; endogenous in cells; host or cells: primary human bronchial epithelial cultures (HBECs) at air-liquid interface
# T1 sequence (P37088 1-669): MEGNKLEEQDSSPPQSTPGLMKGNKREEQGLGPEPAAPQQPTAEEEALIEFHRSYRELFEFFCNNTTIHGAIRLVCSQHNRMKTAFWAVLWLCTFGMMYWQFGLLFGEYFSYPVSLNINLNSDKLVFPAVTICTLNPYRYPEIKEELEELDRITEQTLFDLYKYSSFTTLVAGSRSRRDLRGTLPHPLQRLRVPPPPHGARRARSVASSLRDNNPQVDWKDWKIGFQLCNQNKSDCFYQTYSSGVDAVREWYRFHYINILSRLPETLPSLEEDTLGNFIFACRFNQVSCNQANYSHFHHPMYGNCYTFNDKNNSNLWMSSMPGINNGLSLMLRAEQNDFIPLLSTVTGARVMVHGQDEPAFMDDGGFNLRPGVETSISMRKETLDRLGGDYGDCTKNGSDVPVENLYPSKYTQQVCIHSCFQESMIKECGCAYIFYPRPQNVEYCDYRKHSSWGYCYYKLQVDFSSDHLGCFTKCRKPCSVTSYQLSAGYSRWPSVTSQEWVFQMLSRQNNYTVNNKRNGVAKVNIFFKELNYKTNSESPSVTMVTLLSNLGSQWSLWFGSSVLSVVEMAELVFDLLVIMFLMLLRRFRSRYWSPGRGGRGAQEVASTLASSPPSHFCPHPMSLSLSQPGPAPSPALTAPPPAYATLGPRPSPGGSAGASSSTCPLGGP
# T1 sequence (P51168 1-640): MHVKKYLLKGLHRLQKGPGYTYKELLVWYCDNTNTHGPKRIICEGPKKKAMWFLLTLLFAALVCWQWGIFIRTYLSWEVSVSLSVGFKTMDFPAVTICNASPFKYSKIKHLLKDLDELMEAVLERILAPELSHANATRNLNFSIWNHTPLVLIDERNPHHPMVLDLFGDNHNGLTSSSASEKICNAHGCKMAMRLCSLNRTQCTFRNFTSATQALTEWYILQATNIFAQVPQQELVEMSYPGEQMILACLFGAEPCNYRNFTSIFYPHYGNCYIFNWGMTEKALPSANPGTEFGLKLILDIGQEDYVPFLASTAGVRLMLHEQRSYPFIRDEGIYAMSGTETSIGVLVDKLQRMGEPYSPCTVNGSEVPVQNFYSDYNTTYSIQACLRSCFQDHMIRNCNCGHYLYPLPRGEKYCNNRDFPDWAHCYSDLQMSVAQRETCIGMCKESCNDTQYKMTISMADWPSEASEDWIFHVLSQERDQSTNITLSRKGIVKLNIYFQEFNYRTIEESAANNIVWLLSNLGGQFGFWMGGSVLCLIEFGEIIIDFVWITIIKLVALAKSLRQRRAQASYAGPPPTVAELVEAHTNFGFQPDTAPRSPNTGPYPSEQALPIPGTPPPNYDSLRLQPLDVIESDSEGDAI
# T1 sequence (P51170 1-649): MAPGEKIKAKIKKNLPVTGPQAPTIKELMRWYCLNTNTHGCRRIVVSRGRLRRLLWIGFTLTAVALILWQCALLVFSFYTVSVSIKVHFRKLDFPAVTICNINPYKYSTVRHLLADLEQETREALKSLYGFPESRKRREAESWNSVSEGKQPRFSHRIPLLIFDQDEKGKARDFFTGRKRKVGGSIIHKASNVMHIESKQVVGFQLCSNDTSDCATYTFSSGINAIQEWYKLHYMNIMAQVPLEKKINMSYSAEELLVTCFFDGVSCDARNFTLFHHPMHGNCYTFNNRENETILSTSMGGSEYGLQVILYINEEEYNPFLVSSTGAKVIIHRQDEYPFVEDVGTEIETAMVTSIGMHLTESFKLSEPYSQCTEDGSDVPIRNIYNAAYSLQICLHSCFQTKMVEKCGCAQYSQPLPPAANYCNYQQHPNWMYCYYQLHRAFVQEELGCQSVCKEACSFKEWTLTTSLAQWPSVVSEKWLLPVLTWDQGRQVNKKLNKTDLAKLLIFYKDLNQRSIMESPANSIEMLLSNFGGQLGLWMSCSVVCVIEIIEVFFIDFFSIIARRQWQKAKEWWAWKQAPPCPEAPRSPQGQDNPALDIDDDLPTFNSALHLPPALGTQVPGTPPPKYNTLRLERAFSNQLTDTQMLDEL
# [2] = system: proteases; type: in vitro ADME
# [3] = Heat stability; type: physicochemical
# [4] = molecular target: T2, alpha-ENaC (Homo sapiens, UniProt P37088+P51168+P51170); experiment: Internalization of alpha-ENaC in HEK293T cells, GFP-tagged alpha-ENaC co-expressed with beta and gamma ENaC; type: cell-based; conditions: beta-ENaC co-expressed, FIGS. 5A-5U
# T2 construct: expressed in transfected cells; host or cells: HEK293T
# T2 sequence (P37088 1-669): T1 sequence (P37088 1-669)
# T2 sequence (P51168 1-640): T1 sequence (P51168 1-640)
# T2 sequence (P51170 1-649): T1 sequence (P51170 1-649)
# From the text: (§1) HEK293T cells were transfected with gfp-αENaC where gfp was fused at the N-terminus of ENaC and unlabeled βENaC and γENaC using lipofectamine in 384 well plates as per the manufacturer's instructions and as published previously (see, e.g., Hobbs et al. Am J Physiol Lung Cell Mol Physiol. 2013 December; 305(12):L990-L1001. doi: 10.1152/ajplung.00103.2013. Epub 2013 October; Garland et al. Proc Natl Acad Sci USA. 2013 Oct. 1; 110(40):15973-8. doi: 10.1073/pnas.1311999110. Epub 2013 Sep. 16.; Tan et al. J Physiol. 2014 Dec. 1; 592(Pt 23):5251-68). Twenty-four hours later, peptide or vehicle control were added at t=0 and fluorescence was read using a Tecan M1000 plate reader 3 h later. Fluorescence was read at 488 nm (excitation)/510 nm (emission).
# [5] = molecular target: T3, alpha-ENaC (Homo sapiens, UniProt P37088); experiment: Internalization of alpha-ENaC in HEK293T cells, GFP-tagged alpha-ENaC co-expressed only with gamma ENaC and no beta-ENaC; type: cell-based; conditions: FIG. 6
# T3 construct: expressed in transfected cells; host or cells: HEK293T
# T3 sequence (P37088 1-669): T1 sequence (P37088 1-669)
# Protocol: as §1, with “HEK293T cells were transfected with gfp-αENaC where gfp was fused at the N-terminus of ENaC and unlabeled βENaC and γENaC using lipofectamine in 384 well plates as per the manufacturer's instructions and as published previously (see, e.g., Hobbs et al.” left out
# [6] = molecular target: epithelial Na+ channel (ENaC), endogenous in human bronchial epithelial cultures (human, UniProt P37088 1-669; P51168 1-640; P51170 1-649); experiment: cell-based or functional assay
Molecule,EC50 for inhibition of ENaC [1],duration of ENaC inhibition following a single dose [1],susceptibility to proteolytic degradation [2],heat stability [3],reduction of alpha-ENaC / functional receptor on the cell surface [4],effect on alpha-ENaC [5],"IC50, dose response of ASL height on airway cells [6] [nM]"
H-GGLPVPLDQTLPLNVNPA-NH2 [SEQ ID NO:1],sub micromolar,up to 24 h,resistant to proteolysis,heat-stable,effective in reducing alpha-ENaC,no effect,–
B1,–,–,–,–,–,–,30

# From patent US20200031866A1, “PEPTIDE INHIBITORS OF SODIUM CHANNELS” (SPYRYX BIOSCIENCES, INC., priority 2016, published 2020)
